The results in this text go back to paper PMC11359831, “Stepwise Structural Simplification of the Dihydroxyanthraquinone Moiety of a Multitarget Rhein-Based Anti-Alzheimer Lead to Improve Drug Metabolism and Pharmacokinetic Properties” (Pharmaceutics, 2024).

Values after ≈ are worked out from the molar mass of the structure shown.

Data set [1] concerns the target T1, Aβ42 aggregation (Homo sapiens, UniProt P05067).
T1 construct: expressed in transfected cells; host or cells: E. coli BL21 (DE3) bearing pET28a-Aβ42
In words: Aβ42 aggregation inhibition in genetically modified E. coli cells (Th-S fluorescence). It counts as cell-based, Escherichia coli. To be noted: live E. coli cells overexpressing Aβ42. As for the experimental part: For Aβ42 overexpression, M9 minimal medium (10 mL) containing kanamycin (50 μg/mL) was added to a colony of E. coli BL21 (DE3) competent cells, bearing the pET28a plasmid (Novagen, Inc., Madison, WI, USA), which contains the DNA sequence encoding for Aβ42. After overnight culture, the volume necessary to obtain a 1:500 dilution was added to fresh M9 minimal medium that contained kanamycin (50 μg/mL) and thioflavin-S (Th-S, 250 µM).
(§1) For Aβ42 overexpression, the corresponding E. coli cell cultures were kept growing overnight (37 °C; 250 rpm) until they reached an OD600 = 0.6. These cultures (980 μL) were added to a mixture of 10 μL of a solution of the new compounds in DMSO and 10 μL of 100 mM isopropyl 1-thio-β-D-galactopyranoside (IPTG), to reach a final compound concentration of 10 μM. The same procedure was used for tau overexpression but employing 10 μL of 25% arabinose instead of IPTG. The resulting E. coli cultures were kept growing overnight (37 °C; 1400 rpm) using an Eppendorf Thermomixer (Hamburg, Germany). To prepare a negative control for the assay, showing the highest amount of the amyloidogenic protein, the same quantity of DMSO, without the compounds to be tested, was added to the sample. With the double purpose of obtaining positive controls devoid of the amyloidogenic proteins and assessing the potential intrinsic toxicity of the new compounds, we also prepared samples that had not been treated with either IPTG or arabinose (non-induced samples).
(§2) To assess the inhibitory activity of compounds 4–7 on Aβ42 and tau aggregation within E. coli cells, a fluorescence assay was employed, using Th-S ([…] stock solution, T1892, Sigma, St. Louis, MO, USA) in double-distilled water (Milli-Q system, Millipore, Bay City, MI, USA) and an Aminco Bowman Series 2 luminescence spectrophotometer (Aminco-Bowman AB2, SLM Aminco, Rochester, NY, USA), working at 25 °C in the wavelength range of 460–600 nm, with λex = 445 nm, slit widths of 4 nm, and λem = 485 nm. The results are given as the average of nine independent experiments, each performed in triplicate.

Data set [2] concerns the target T2, tau aggregation (Homo sapiens, UniProt P10636).
T2 construct: expressed in transfected cells; host or cells: E. coli BL21 (DE3) bearing pTARA and pRKT42
The experiment in a line: Tau aggregation inhibition in genetically modified E. coli cells (Th-S fluorescence). It counts as cell-based, Escherichia coli. To be noted: live E. coli cells overexpressing tau. As for the experimental part:
For tau overexpression, M9 minimal medium (10 mL) containing glucose (0.5%), ampicillin (50 μg/mL), chloramphenicol (12.5 μg/mL), and E. coli BL21 (DE3) cells bearing the pTARA plasmid, which carries the RNA polymerase gene of the T7 phage (T7RP) under control of the PBAD promoter, and subsequent transformation with the pRKT42 vector were used instead. In this case, the overnight culture for a 1:500 dilution was added to fresh M9 minimal medium containing glucose (0.5%), chloramphenicol (12.5 μg/mL), ampicillin (50 μg/mL), and Th-S (250 µM).
as §1, §2

The target of data set [3] is T3, human recombinant BACE-1 (hBACE-1) (Homo sapiens, UniProt P56817).
T3 construct: purchased Invitrogen, Carlsbad, CA, USA
T3 sequence (P56817 46-501): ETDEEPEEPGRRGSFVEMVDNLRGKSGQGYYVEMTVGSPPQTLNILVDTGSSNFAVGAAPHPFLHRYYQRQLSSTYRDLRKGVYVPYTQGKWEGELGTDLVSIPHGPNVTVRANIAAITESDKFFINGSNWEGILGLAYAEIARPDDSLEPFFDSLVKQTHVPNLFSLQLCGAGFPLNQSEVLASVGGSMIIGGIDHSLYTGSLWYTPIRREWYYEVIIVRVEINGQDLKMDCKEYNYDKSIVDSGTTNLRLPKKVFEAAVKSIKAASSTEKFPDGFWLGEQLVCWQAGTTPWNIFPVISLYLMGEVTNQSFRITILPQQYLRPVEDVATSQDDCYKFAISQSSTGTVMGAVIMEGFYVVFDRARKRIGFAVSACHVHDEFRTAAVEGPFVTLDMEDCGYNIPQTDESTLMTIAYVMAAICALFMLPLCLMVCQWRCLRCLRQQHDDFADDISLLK
The experiment in a line: In vitro hBACE-1 inhibition (fluorometric method). It counts as biochemical. As for the experimental part: The inhibition of human recombinant BACE-1 (hBACE-1) (Invitrogen, Carlsbad, CA, USA) by hybrids 4–7 was evaluated by a fluorometric method. The substrate (Panvera peptide, 10 μL, 250 nM final concentration) was added to a solution (10 μL) of hybrids 4–7 or buffer in control wells (20 mM sodium acetate at pH 4.5, with 0.1% w/v CHAPS). After the addition of the enzyme (10 μL, 12.91 mU), the assay solution was incubated for 1 h at 37 °C. Thereafter, STOP solution (10 μL, 2.5 M sodium acetate) was added and the fluorescence was read at […]. The DMSO concentration in the assay solution was kept <5% (v/v) to ensure no significant loss of BACE-1 activity. The background signal, determined in control wells with all the components of the assay but BACE-1, was subtracted. The fluorescence intensities in the presence of increasing concentrations or in the absence of hybrids 4–7 were compared to calculate the percent of enzyme inhibition produced by the compounds, by applying the following expression: 100 − (IFi/IFo × 100), in which IFi and IFo are the fluorescence intensities in the presence and in the absence of the compounds, respectively. Additionally, the IC50 values were calculated (GraphPad Prism 4.03 software, GraphPad Software Inc., San Diego, CA, USA) and are given as the mean ± SEM of at least two experiments, each performed in triplicate.

The conditions of data set [4]: PAMPA-BBB, drugs used for assay validation.
Description: The parallel artificial membrane permeability assay for the blood–brain barrier (PAMPA-BBB) [41] was used to assess the in vitro brain permeability of the new compounds. For the assay, the compounds were dissolved in mixtures of PBS and ethanol (70:30).
The nature of data set [5]: physchem. To be noted: 37 °C, aqueous buffer, kinetic from dmso stock.
Description: The resulting solutions were incubated at 37 °C. After 2 h incubation, the samples were read using a BMG LABTECH NEPHELOstar Plus laser nephelometer (Ortenberg, Germany).

T2 sequence (P10636 other isoform, or with tags, fused parts or gaps): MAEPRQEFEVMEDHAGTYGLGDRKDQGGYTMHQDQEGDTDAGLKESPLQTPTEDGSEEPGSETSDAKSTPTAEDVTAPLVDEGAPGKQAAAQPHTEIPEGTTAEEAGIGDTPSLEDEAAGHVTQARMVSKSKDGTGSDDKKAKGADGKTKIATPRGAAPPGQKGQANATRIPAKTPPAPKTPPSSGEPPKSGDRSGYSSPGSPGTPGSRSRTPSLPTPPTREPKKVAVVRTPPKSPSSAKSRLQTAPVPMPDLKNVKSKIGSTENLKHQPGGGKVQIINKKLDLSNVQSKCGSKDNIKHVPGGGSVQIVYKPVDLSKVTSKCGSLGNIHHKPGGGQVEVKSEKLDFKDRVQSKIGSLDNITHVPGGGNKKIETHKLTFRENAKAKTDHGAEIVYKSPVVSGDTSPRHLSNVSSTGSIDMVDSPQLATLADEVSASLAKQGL
T1 sequence (P05067 672-713): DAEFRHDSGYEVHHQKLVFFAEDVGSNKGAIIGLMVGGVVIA

On to `O=C(NCCCCCCCCNc1c2c(nc3cc(Cl)ccc13)CCCC2)c1ccc2nc(-c3ccc(Cl)cc3)c3c(c2c1)NCCC3` [DP128, reference compound], for which the “Aβ42 Aggregation % inh. @10 µM” value in data set [1] is 78.1 ± 1.7%. Further, the “Tau Aggregation % inh. @10 µM” value in data set [2] is 69.9 ± 0.7%.

As for `O=c1c(O)c(-c2cc(O)c(O)c(O)c2)oc2cc(O)cc(O)c12` [Myr, myricetin, reference compound], the IC50 in data set [3] was 4.18 ± 0.5 µM. As for `CN1C(C(=O)Nc2ccccn2)=C(O)c2ccccc2S1(=O)=O` [Piroxicam, reference compound], the “Experimental Pe Value” in data set [4] is 2.2 ± 0.1 10^−6 cm s^−1. `CC(=O)[C@H]1CC[C@H]2[C@@H]3CCC4=CC(=O)CC[C@]4(C)[C@H]3CC[C@]12C` [Progesterone, reference compound] came in with a solubility at 2 h in data set [5] (Solubility) of 5.9 µM (≈ 1.86 µg/mL). As for `C[C@H]1O[C@@H](O[C@H]2[C@@H](O)C[C@H](O[C@H]3[C@@H](O)C[C@H](O[C@H]4CC[C@@]5(C)[C@H](CC[C@@H]6[C@@H]5C[C@@H](O)[C@]5(C)[C@@H](C7=CC(=O)OC7)CC[C@]65O)C4)O[C@@H]3C)O[C@@H]2C)C[C@H](O)[C@@H]1O` [digoxin, reference compound], the solubility at 2 h in data set [5] is 86.3 µM (≈ 67.4 µg/mL).
